Consider one compound from ChEMBL document CHEMBL4725372, “Rational Design of Suprastat: A Novel Selective Histone Deacetylase 6 Inhibitor with the Ability to Potentiate Immunotherapy in Melanoma Models” (J Med Chem, 2020).

For data set [1], the target named is T1, Histone deacetylase 11 (Homo sapiens, UniProt Q96DB2).
T1 sequence (Q96DB2 whole entry): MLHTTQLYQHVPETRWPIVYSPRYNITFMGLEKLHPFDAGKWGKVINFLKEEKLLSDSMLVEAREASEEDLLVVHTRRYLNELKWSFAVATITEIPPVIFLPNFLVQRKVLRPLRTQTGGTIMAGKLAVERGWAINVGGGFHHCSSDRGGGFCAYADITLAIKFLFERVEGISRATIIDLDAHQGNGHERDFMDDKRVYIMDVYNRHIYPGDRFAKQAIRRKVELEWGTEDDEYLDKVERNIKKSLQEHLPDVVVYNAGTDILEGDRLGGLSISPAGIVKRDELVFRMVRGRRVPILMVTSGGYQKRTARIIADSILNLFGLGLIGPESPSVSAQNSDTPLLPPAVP
Briefly: Inhibition of human HDAC11 expressed in HEK293/T17 cells pre-incubated for 10 mins before […] addition and measured after 30 mins by fluorescence-based assay. The class given is cell-based.

Data set [2] concerns HEK293. Kind of data set: Selectivity index, ratio of IC50 for human HDAC1 expressed in HEK293/T17 cells (unknown origin) to human HDAC6 expressed in HEK293/T17 cells. The class given is cell-based.
For data set [3], the system named is HEK293. Kind of data set: Selectivity index, ratio of IC50 for human HDAC5 expressed in HEK293/T17 cells (unknown origin) to human HDAC6 expressed in HEK293/T17 cells. The class given is cell-based.
Data set [4] has as its system HEK293. Kind of data set: Selectivity index, ratio of IC50 for human HDAC8 expressed in HEK293/T17 cells (unknown origin) to human HDAC6 expressed in HEK293/T17 cells. The class given is cell-based.
Data set [5] can be described thus: Half life in PBS by LC-MS/MS analysis. The class given is physicochemical.
Data set [6] can be described thus: Half life in human plasma at 10 uM by LC-MS/MS analysis. The class given is ADME, cell-free.
In data set [7] the target is T2, Protein deacetylase HDAC6 (Homo sapiens) (UniProt Q9UBN7).
T2 sequence (whole entry): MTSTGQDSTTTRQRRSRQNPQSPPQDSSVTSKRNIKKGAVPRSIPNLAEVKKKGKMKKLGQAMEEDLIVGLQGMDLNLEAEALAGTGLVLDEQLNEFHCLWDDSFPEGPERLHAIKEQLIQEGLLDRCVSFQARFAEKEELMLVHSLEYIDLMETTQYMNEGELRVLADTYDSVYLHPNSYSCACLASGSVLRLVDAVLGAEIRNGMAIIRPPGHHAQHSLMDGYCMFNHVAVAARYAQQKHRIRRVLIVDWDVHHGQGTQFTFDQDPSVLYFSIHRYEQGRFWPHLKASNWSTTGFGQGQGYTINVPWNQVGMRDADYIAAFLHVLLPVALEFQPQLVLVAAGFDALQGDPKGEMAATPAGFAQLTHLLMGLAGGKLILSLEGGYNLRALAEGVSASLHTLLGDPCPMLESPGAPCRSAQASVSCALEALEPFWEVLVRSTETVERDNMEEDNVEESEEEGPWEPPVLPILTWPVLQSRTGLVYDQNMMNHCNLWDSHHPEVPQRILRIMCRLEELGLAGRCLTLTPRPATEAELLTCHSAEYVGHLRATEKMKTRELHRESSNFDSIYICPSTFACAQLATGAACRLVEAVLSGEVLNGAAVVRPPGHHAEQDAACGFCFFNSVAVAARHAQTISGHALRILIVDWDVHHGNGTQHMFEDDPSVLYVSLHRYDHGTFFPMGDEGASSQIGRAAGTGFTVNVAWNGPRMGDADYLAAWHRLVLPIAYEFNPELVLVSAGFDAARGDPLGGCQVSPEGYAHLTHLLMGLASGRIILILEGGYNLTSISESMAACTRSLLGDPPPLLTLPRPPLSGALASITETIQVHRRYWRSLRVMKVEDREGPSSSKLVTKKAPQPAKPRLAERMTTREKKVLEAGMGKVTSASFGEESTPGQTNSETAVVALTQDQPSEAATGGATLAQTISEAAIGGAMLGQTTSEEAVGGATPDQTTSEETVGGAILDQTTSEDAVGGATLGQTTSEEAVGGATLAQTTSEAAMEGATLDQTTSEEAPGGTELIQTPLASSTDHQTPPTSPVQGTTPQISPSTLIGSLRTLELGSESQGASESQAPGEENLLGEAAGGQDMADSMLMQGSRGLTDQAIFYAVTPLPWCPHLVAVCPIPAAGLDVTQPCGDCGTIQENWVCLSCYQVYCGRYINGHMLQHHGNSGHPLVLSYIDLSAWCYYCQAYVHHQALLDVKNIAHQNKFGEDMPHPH
Briefly: Inhibition of human HDAC6 in human WM164 cells increase in acetylated alpha-tubulin levels at 0.1 to 10 uM by immunoblot analysis. The class given is cell-based. Conditions: dose microM 0.1-10.

The test system of data set [8] is SM1. Briefly: Cytotoxicity in mouse SM1 cells assessed as reduction in cell viability up to 25 uM. The data set is classed as functional, cell-based. Conditions: dose microM <=25.
Data set [9] has as its target T2, Protein deacetylase HDAC6 (Homo sapiens). Kind of data set: Inhibition of human HDAC6 in human WM164 cells assessed as decrease in STAT3 Y705 phosphorylation at 5 uM pre-incubated before IL6 stimulation for 20 mins by immunoblot analysis. The class given is cell-based. (A western blot detects proteins with antibodies after separation by electrophoresis.)
For data set [10], the system named is Mus musculus. Briefly: Immunomodulatory activity in C57BL/6 mouse harboring mouse SM1 cells assessed as reduction in F4/80+ CD206+ pro-tumor M2 macrophages at 25 mg/kg, ip dosed 5 days per week before starting 15 mg/kg, ip anti-PD1 immune checkpoint blockade therapy by flow cytometry. The data set is classed as functional, organism-based. Conditions: time 5.0 day/week.

Data set [11] deals with Mus musculus. Kind of data set: Immunomodulatory activity in C57BL/6 mouse harboring mouse SM1 cells assessed as reduction in F4/80+ CD206+ pro-tumor M2 macrophages at 25 mg/kg, ip dosed 5 days per week by flow cytometry. The data set is classed as functional, organism-based. Conditions: time 5.0 day/week. On the technique in general: Flow cytometry measures light scatter and fluorescence of single cells or particles in a stream.

Data set [12] relates to Mus musculus. Kind of data set: Immunomodulatory activity in C57BL/6 mouse harboring mouse SM1 cells assessed as increase in CD8+ effector T-cells and effector memory cells at 25 mg/kg, ip dosed 5 days per week before starting 15 mg/kg, ip anti-PD1 immune checkpoint blockade therapy by flow cytometry. The class given is functional, organism-based. To be noted: time 5.0 day/week.

In data set [13] the test system is Mus musculus. Kind of data set: Immunomodulatory activity in C57BL/6 mouse harboring mouse SM1 cells assessed as effect on CD4+ T cells at 25 mg/kg, ip dosed 5 days per week by flow cytometry. The class given is functional, organism-based. To be noted: time 5.0 day/week.
In data set [14] the test system is Mus musculus. Briefly: Immunomodulatory activity in C57BL/6 mouse harboring mouse SM1 cells assessed as effect on immunosuppressive T-regs at 25 mg/kg, ip dosed 5 days per week before starting 15 mg/kg, ip anti-PD1 immune checkpoint blockade therapy by flow cytometry. The data set is classed as functional, organism-based. To be noted: time 5.0 day/week.
Data set [15] deals with Mus musculus. Briefly: Immunomodulatory activity in C57BL/6 mouse harboring mouse SM1 cells assessed as increase in natural killer cells at 25 mg/kg, ip dosed 5 days per week before starting 15 mg/kg, ip anti-PD1 immune checkpoint blockade therapy by flow cytometry. Conditions: time 5.0 day/week. The data set is classed as functional, organism-based.
The test system of data set [16] is Mus musculus. Briefly: Immunomodulatory activity in C57BL/6 mouse harboring mouse SM1 cells assessed as increase in natural killer cells at 25 mg/kg, ip dosed 5 days per week before by flow cytometry. The data set is classed as functional, organism-based. Conditions: time 5.0 day/week.
In data set [17] the test system is Mus musculus. Kind of data set: Immunomodulatory activity in C57BL/6 mouse harboring mouse SM1 cells assessed as reduction in natural killer T cells at 25 mg/kg, ip dosed 5 days per week before by flow cytometry. To be noted: time 5.0 day/week. The data set is classed as functional, organism-based.

Active and inactive are the calls of the source. No cut-off for these calls is given here.

As usually defined, the IC50 is the midpoint of a concentration-inhibition curve. Low values mean greater potency in that assay, high ones weaker potency in that assay. Usually half-life stands for how long it takes for the measured level to halve. A low value points to rapid decline.

`NCc1ccc(NC(=O)N(CCCCO)Cc2ccc(C(=O)NO)cc2)cc1` displayed an IC50 in data set [1] greater than 50 µM. Moreover, the Ratio IC50 was determined as 293 in data set [2], 8550 in data set [3] and 1250 in data set [4]. For the same compound, in [5], the half-life is greater than 24 h. In data set [6], this compound yielded a half-life at 10 µM greater than 5 h. In addition, the inhibition result in [7] is “Dose-dependent effect”. The outcome in [8], in data set [13] and in [14] was inactive. The inhibition result in [9] is “Active”. For the same compound, the outcome in data set [10], in data set [11], in [12], in data set [15], in data set [16] and in data set [17] was Active.
